According to US20250163072A1, “MACROCYCLIC COMPOUNDS FOR THE TREATMENT OF CANCER” (Hoffmann-La Roche Inc., priority 2021, published 2025):
Read-outs that look alike come from different tables or passages of the source.

What was measured:
AGS cells = experiment: Cell viability assay, AGS; format: cell-based, human; settings: 72 hours, Cell Counting Kit-8, read-out: G12D IC50
Procedure, shortened: (§1)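 Cells were plated at 5,000 (NCI-H358) or 2,000 (AGS, SW620) per well and incubated overnight. They were then treated with compound in 0.5% DMSO for 72 h. Viability was read with CCK-8 as OD450 minus OD650 after 2 h, and IC50 came from a 4-parameter sigmoidal fit.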

KRAS G12D in AGS cells = experiment: pERK inhibition assay, AGS; format: cell-based, human; settings: 4 hours incubation
Procedure, shortened: (§2)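 NCI-H358, AGS and SW620 cells in RPMI-1640/10% FBS were plated overnight, then exposed to compound (0.5% DMSO final) for 4 h. After fixation and permeabilization, phospho-ERK was quantified by in-cell ELISA (HRP secondary, TMB, OD450); IC50 from a 4-parameter sigmoidal fit.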

[1] = tested on: KRAS G12C in NCI-H358 cells; experiment: pERK inhibition assay, NCI-H358; format: cell-based, human; settings: 4 hours incubation
Procedure, shortened: as §2

KRAS G12V in SW620 = experiment: pERK inhibition assay, SW620; format: cell-based, human; settings: 4 hours incubation
Procedure, shortened: as §2

KRAS G12C-BRAF complex [2] = molecular target: T1, KRAS G12C-BRAF complex (Homo sapiens (Human), UniProt P01116+P62937, G12C); experiment: KRAS-BRAF with CYPA (50 nM) interaction assay (TR-FRET), G12C; format: binding; settings: GMPPNP loaded 6His-KRAS, GST-BRAF RBD
Protocol: (§3) In this example, TR-FRET was also used to measure the compound or compound-CYPA dependent disruption of the KRAS G12C-BRAF complex. This protocol was also used to measure disruption of KRAS G12D or KRAS G12V binding to BRAF by a compound of the invention, respectively. In assay buffer containing 25 mM HEPES PH=7.4 (4-(2-hydroxyethyl)-1-piperazineethanesulfonic acid, Thermo, 15630080), 0.002% Tween20, 0.1% BSA, 100 mM NaCl, 5 mM MgCl2, 10 μM GMPPNP (Guanosine 5'-[β,γ-imido]triphosphate trisodium salt hydrate, Sigma, G0635), tagless CYPA, GMPPNP loaded 6His-KRAS proteins, and GST-BRAF^RBD were mixed in a well of a 384-well assay plate at final concentrations of 50 nM, 6.25 nM and 1 nM, respectively. Compound was present in plate wells as a 16-point 3-fold dilution series starting at a final concentration of 10 μM and incubated for 3 hours. A mixture of MAb Anti-6His-XL665 (Cisbio, 61HISXLB) and Mab anti-GST-TB cryptate (Cisbio, 61GSTTLB) was then added at a final concentration of 6.67 nM and 0.21 nM, respectively, and the plate was incubated for an additional 1.5 hours. TR-FRET signal was read on a […] microplate reader (Ex320 nm, Em 665/615 nm). Compounds that facilitate disruption of the KRAS-BRAF complex were identified as those eliciting a decrease in the TR-FRET ratio relative to DMSO control wells.

SW620 cells = experiment: Cell viability assay, SW620; format: cell-based, human; settings: Cell Counting Kit-8, read-out: G12V IC50
Procedure, shortened: as §1

KRAS G12C-BRAF complex [3] = molecular target: T1, KRAS G12C-BRAF complex; experiment: KRAS G12C-BRAF NanoBit assay; format: cell-based; settings: HEK293 cells, SmBit-KRAS G12C and BRAF RBD-LgBit, 3 hours incubation
Protocol: This assay is to measure the ability of tested compounds in disruption of the KRAS G12C-BRAF complex at the cellular level, we established the NanoBit cellular assay in mammalian HEK293 (ATCC) cells. HEK293 cells were grown and maintained using DMEM medium (Thermo Fisher Scientific) with 10% fetal bovine serum and 1% penicillin/streptomycin. Both KRAS G12C and BRAF RBD were cloned into the NanoBit vectors ([…] vectors system, Promega) with the orientations SmBit-KRAS G12C and BRAF RBD-LgBit, respectively, and co-transfected into HEK293 cells. Cells were then selected with 100 μg/mL Hygromycin B (10687010, Thermo Fisher) and Blasticidin (5 μg/mL) for 4 weeks to get the stable cell pool. On the day of the assay, 75 nL of compound solution was presented in a 384-well assay plate as a 16-point 3-fold dilution starting from a final concentration of 30 μM in DMSO. Then cells were seeded at 10,000 cells/25 μL/well in a 384-well plate. After 3 hours of incubation, 6 μL of volume of Nano-Glo® Live Cell Substrate (Promega) was added into each well. Monitor luminescence using ultra384 model in Envision at 20 minutes. Compounds that facilitate disruption of the KRAS G12C-BRAF RBD complex were identified as those eliciting a decrease of luminescence relative to DMSO control wells.

[4] = molecular target: KRAS G12D binding to BRAF (Homo sapiens (Human), UniProt P01116+P62937, G12D); experiment: KRAS-BRAF with CYPA (50 nM) interaction assay (TR-FRET), G12D; settings: GMPPNP loaded 6His-KRAS, GST-BRAF RBD
Protocol: as §3

NCI-H358 cells = experiment: Cell viability assay, NCI-H358; format: cell-based, human; settings: NCI-H358, 72 hours, Cell Counting Kit-8, read-out: G12C IC50
Procedure, shortened: as §1

[5] = molecular target: KRAS G12V binding to BRAF (Homo sapiens (Human), UniProt P01116+P62937, G12V); experiment: KRAS-BRAF with CYPA (50 nM) interaction assay (TR-FRET), G12V; settings: GMPPNP loaded 6His-KRAS, GST-BRAF RBD
Protocol: as §3

[6] = Human hepatocytes stability assay; format: in vitro ADME; settings: for CL_hep (Human): 1 μM compound, human hepatocytes 1×10^6 cells/mL
Protocol: The hepatocyte stability assay measures the rate of disappearance of a compound from incubations with cryopreserved suspension hepatocytes from human. Positive controls, including Midazolam, Raloxifene and Dextromethorphan, are included in every experiment. Incubations consist of 1 μM tested compound and suspension of human hepatocytes (1×10^6 cells/mL) in supplemented Williams' E Medium with […] and 0.5% Penicillin-streptomycin. The hepatocyte suspension was incubated with intermittent shaking 900 rpm at 37° C., in a 5% CO2 incubator. The reaction was stopped by adding methanol containing internal standard (2 μM Tolbutamide) at 2, 10, 20, 40, 60 and 120 minutes after compound addition, depletion of the parent compound was monitored by LC-MS/MS analysis.

GSH = GSH reaction rates (inherent GSH reactivity); format: in vitro ADME; settings: buffer, pH 7.4
Protocol: (§4) Therefore Strategy to minimize the GSH metabolism is very critical. Short T1/2 in inherent GSH reaction indicated high GSH reaction rate. Thus T1/2 in inherent GSH reaction assay was determined for the screening of candidates. Reference compounds and compounds of this invention potentially could form conjugation with GSH either through halogenated moieties substitution reaction or direct Michael addition reaction. This test was therefore performed to check GSH reactivity of listed compounds. For inherent GSH reactivity determination, compounds at 1 μM were incubated at 37° C. with and without 5 mM GSH for 0, 0.5, 1, 2, 4 and 6 h in 100 mM potassium phosphate buffer at pH 7.4. At the end of the designated time points, samples were quenched with acetonitrile containing 10 mM N-ethylmaleimide and an internal standard. Quenched samples were centrifuged, and supernatants were analyzed by LC-MS/MS for compound quantification.

[7] = GSH reaction rates (inherent GSH reactivity); format: in vitro ADME
Protocol: as §4

[8] = Homo sapiens, SW-620, SW620 cells
[9] = Homo sapiens, SW-620, SW620, 72 hours

Chain of KRAS G12D binding to BRAF (P01116-2 other isoform, or with tags, fused parts or gaps G12D): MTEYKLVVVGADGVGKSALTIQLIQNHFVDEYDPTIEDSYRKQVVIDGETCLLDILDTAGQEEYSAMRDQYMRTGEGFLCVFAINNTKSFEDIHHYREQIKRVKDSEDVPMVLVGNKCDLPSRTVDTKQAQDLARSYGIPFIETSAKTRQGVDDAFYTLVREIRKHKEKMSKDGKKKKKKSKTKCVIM
Chain of KRAS G12D binding to BRAF (P62937 whole entry): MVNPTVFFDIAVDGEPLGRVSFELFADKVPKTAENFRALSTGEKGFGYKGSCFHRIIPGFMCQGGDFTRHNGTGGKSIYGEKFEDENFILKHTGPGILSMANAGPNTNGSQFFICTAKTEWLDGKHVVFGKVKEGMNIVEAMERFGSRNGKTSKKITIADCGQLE
T1 sequence (P01116-2 other isoform, or with tags, fused parts or gaps G12C): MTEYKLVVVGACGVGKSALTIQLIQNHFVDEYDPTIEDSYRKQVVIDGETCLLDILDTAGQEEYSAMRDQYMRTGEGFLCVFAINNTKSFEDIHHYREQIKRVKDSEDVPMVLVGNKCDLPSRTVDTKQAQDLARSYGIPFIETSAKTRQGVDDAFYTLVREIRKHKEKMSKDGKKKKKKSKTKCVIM
T1 sequence (P62937 whole entry): as the sequence (P62937 whole entry) above
Chain of KRAS G12V binding to BRAF (P01116-2 other isoform, or with tags, fused parts or gaps G12V): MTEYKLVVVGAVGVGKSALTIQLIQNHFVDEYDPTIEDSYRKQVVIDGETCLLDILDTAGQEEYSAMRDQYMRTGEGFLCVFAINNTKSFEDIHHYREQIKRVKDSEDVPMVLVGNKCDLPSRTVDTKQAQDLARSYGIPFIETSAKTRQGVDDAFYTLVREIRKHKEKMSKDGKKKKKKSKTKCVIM
Chain of KRAS G12V binding to BRAF (P62937 whole entry): as the sequence (P62937 whole entry) above

SMILES | IC50 (AGS cells; Homo sapiens) | IC50 (KRAS G12D in AGS cells; Homo sapiens) | IC50 ([1]; Homo sapiens) | IC50 (KRAS G12V in SW620; [8]) | IC50 (KRAS G12C-BRAF complex [2]) | IC50 (SW620 cells; [9]) | IC50 (KRAS G12C-BRAF complex [3]) | IC50 [4] | IC50 (NCI-H358 cells; Homo sapiens) | IC50 [5] | CL_hep (Human) [6] | half-life at 1 μM (GSH) | conjugation with GSH (in words) [7] | Clearance Category ([6]; human hepatocytes) | IC50 (AGS cells) | IC50 (KRAS G12D in AGS cells) | IC50 [1] | IC50 (KRAS G12V in SW620; SW620 cells) | IC50 (SW620 cells; SW620, 72 hours) | IC50 (NCI-H358 cells)
CCn1c(-c2cc(N3CCN(C)CC3)cnc2[C@H](C)OC)c2c3cc(ccc31)-c1csc(n1)C[C@H](NC(=O)[C@H](C(C)C)N1CCCC3(CCN(C(=O)[C@H](F)Cl)C3)C1=O)C(=O)N1CCC[C@H](N1)C(=O)OCC(C)(C)C2 (stereo partly drawn) [Example 18, (2S)-2-[2-[(2R)-2-chloro-2-fluoro-acetyl]-6-oxo-2,7-diazaspiro[4.5]decan-7-yl]-N-[(7S,13S)-21-ethyl-(20M)-20-[2-[(1S)-1-methoxyethyl]-5-(4-methylpiperazin-1-yl)-3-pyridyl]-17,17-dimethyl-8,14-dioxo-15-oxa-4-thia-9,21,27,28-tetrazapentacyclo[17.5.2.12,5.19,13.022,26]octacosa-1(25),2,5(28),19,22(26),23-hexaen-7-yl]-3-methyl-butanamide] | 19 nM | 26 nM | 3 nM | 28 nM | 68 nM | 26 nM | 20 nM | > 10000 nM | 0.7 nM | > 10000 nM |  |  |  |  |  |  |  |  |  | 
CC(C)[C@@H](C(=O)N[C@H]1Cc2cc(O)cc(c2)-c2ccc3c(C(C)(C)C#N)cn(c3c2)CC(C)(C)COC(=O)[C@@H]2CCCN(N2)C1=O)N1CCCC2(CCN(C(=O)CCl)C2)C1=O (stereo partly shown) [RM351, reference compound] | 2100 nM | > 10000 nM | 356 nM | > 10000 nM |  | 4810 nM |  |  | 1390 nM |  | 15.5 mL/min/kg | 4.3 h | formed conjugation with GSH |  |  |  |  |  |  | 
CCn1c(-c2cc(N3CCN(C)CC3)cnc2[C@H](C)OC)c2c3cc(ccc31)-c1cc(O)cc(c1)C[C@H](NC(=O)[C@H](C(C)C)N(C)C(=O)[C@H]1CCN(C(=O)[C@H](F)Cl)C1)C(=O)N1CCC[C@H](N1)C(=O)OCC(C)(C)C2 (atropisomer, axis not shown; (M)) [Example 12, (3S)-1-[(2R)-2-chloro-2-fluoro-acetyl]-N-[(1S)-1-[[(8S,14S)-22-ethyl-4-hydroxy-(21M)-21-[2-[(1S)-1-methoxyethyl]-5-(4-methylpiperazin-1-yl)-3-pyridyl]-18,18-dimethyl-9,15-dioxo-16-oxa-10,22,28-triazapentacyclo[18.5.2.12,6.110,14.023,27]nonacosa-1(26),2,4,6(29),20,23(27),24-heptaen-8-yl]carbamoyl]-2-methyl-propyl]-N-methyl-pyrrolidine-3-carboxamide] | 16 nM | 10 nM | 6 nM | 12 nM | 2 nM | 16 nM | 37 nM | 6 nM | 5 nM | 3 nM |  |  |  |  |  |  |  |  |  | 
CCn1c(-c2cccnc2[C@H](C)OC)c2c3cc(ccc31)-c1cc(O)cc(c1)C[C@H](NC(=O)[C@H](C(C)C)N(C)C(=O)C1CN(C(=O)CCl)C1)C(=O)N1CCC[C@H](N1)C(=O)OCC(C)(C)C2 [RM461, reference compound] | 2710 nM | > 10000 nM | 7 nM | > 10000 nM |  | 4040 nM |  |  | 22 nM |  | 16.4 mL/min/kg | 5 h | formed conjugation with GSH | high (CL_hep (mL/min/kg)>16.24 is high clearance) |  |  |  |  |  | 
CO[C@@H](C)c1ncc(N2CCN(C)CC2)cc1-c1c2c3cc(ccc3n1CC(F)(F)F)-c1csc(n1)C[C@H](NC(=O)[C@H](C(C)C)N1CC[C@]3(CCN(C(=O)[C@H](F)Cl)C3)C1=O)C(=O)N1CCC[C@H](N1)C(=O)OCC(C)(C)C2 [Example 24, (2S)-2-[(5R)-7-[(2R)-2-chloro-2-fluoro-acetyl]-1-oxo-2,7-diazaspiro[4.4]nonan-2-yl]-N-[(7S,13S)-(20M)-20-[2-[(1S)-1-methoxyethyl]-5-(4-methylpiperazin-1-yl)-3-pyridyl]-17,17-dimethyl-8,14-dioxo-21-(2,2,2-trifluoroethyl)-15-oxa-4-thia-9,21,27,28-tetrazapentacyclo[17.5.2.12,5.19,13.022,26]octacosa-1(25),2,5(28),19,22(26),23-hexaen-7-yl]-3-methyl-butanamide] |  |  |  |  | 21 nM |  | 36 nM | > 10000 nM |  | > 10000 nM |  |  |  |  | 886 nM | 65 nM | 2 nM | 42 nM | 489 nM | < 0.6 nM
